Assays:
[1] = Superoxide scavenging activity (NBT), McCord and Fridovich method; conditions: light induced superoxide generation by riboflavin, reduction of NBT
Protocol: Antioxidant (superoxide scavenging) activity of these compounds are determined by conventional methods like McCord and Fridovich method, which is based on light induced superoxide generation by riboflavin and corresponding reduction of NBT. The assay mixture contains phosphate buffer, EDTA, NBT and riboflavin. Different concentrations of these compounds were assessed and their optical densities measured before and after illumination. The percentage value of inhibition of superoxide production by the compounds of this invention was evaluated and compared with the absorbance value of control and experimental data.

Superoxide scavenging activity (NBT) IC50 [1]	melting point	Compound
8.1 µg/mL	180 to 182 °C	Oc1cc(/C=C/c2cc(O)c(O)c(Br)c2)cc(O)c1O [Compound 2, 5-[(1E)-2-(5-Bromo-3,4-dihydroxyphenyl)vinyl]-benzene1,2,3-triol]
34.1 µg/mL	92 to 94 °C	CN(C)CCOc1cc(O)cc(/C=C/c2ccc(O)cc2)c1 [Compound 8, 3-[(1E)-2-(4-hydroxyphenyl)vinyl]-5-[2-(dimethylamino)ethoxy] phenol]
9.2 µg/mL	–	O=C(/C=C/c1ccc(O)c(O)c1)Oc1cc(O)cc(/C=C/c2ccc(O)cc2)c1 [Compound 6, 5-[(1E)-2-(4-hydroxyphenyl)vinyl]-3-hydroxyphenyl(2E)-3(3,4-dihydroxyphenyl) prop-2-enoate]
16.0 µg/mL	–	O=C(Oc1cc(O)cc(/C=C/c2ccc(O)cc2)c1)c1cc(O)c(O)c(O)c1 [Compound 4, 5-[(1E)2-(4-hydroxyphenyl)vinyl]-3-hydroxyphenyl 3,4,5-trihydroxybenzoate]
10.0 µg/mL	–	O=C(/C=C/c1cc(O)c(O)c(O)c1)Oc1cc(O)cc(/C=C/c2ccc(O)cc2)c1 [Compound 7, 5-[(1E)-2-(4-hydroxyphenyl)vinyl]-3-hydroxyphenyl(2E)3(3,4,5-trihydroxyphenyl) prop-2-enoate]
0.9 µg/mL	–	Oc1cc(/C=C/c2cc(O)c(O)c(O)c2)cc(O)c1O [Compound 3, 5-[(1E)-2-(3,4,5-trihydroxyphenyl)vinyl]-benzene1,2,3-triol]
29.3 µg/mL	–	Cl.NCC(=O)Oc1cc(O)cc(/C=C/c2ccc(O)cc2)c1 [Compound 9, 5-[(1E)-2-(4-hydroxyphenyl)vinyl]-3-hydroxyphenyl 2-aminoacetate hydrochloride]
3.0 µg/mL	150 to 152 °C	Oc1ccc(/C=C/c2cc(O)c(O)c(O)c2)cc1O [Compound 1, 5-[(1E)-2-(3,4-dihydroxyphenyl)vinyl]-benzene1,2,3-triol]
17.5 µg/mL	–	O=C(Oc1cc(/C=C/c2ccc(O)cc2)cc(OC(=O)c2cc(O)c(O)c(O)c2)c1)c1cc(O)c(O)c(O)c1 [Compound 5, 3-[(1E)-2-(4-hydroxyphenyl)vinyl]-5-(3,4,5trihydroxyphenylcarbonyloxy)-phenyl 3,4,5-trihydroxybenzoate]

From US7026518B2 (Laila Impex, priority 2002, dated 2006)
